From ChEMBL document CHEMBL1201862, “PubChem BioAssay data set” (2004)
Activity calls are given as the source filed them.

Legend:
[1] = biological target: T1, Oxysterols receptor LXR-beta (Homo sapiens, UniProt P55055); test: LXR agonists, Gal4 luciferase reporter, dose response, counter-screen for ssDAF-12 agonist project, cell-based, luminescence, HEK293, S. stercoralis campaign (AID 720737); assay type: functional; settings: read-out: IC50 (the source's name)
T1 sequence (P55055 whole entry): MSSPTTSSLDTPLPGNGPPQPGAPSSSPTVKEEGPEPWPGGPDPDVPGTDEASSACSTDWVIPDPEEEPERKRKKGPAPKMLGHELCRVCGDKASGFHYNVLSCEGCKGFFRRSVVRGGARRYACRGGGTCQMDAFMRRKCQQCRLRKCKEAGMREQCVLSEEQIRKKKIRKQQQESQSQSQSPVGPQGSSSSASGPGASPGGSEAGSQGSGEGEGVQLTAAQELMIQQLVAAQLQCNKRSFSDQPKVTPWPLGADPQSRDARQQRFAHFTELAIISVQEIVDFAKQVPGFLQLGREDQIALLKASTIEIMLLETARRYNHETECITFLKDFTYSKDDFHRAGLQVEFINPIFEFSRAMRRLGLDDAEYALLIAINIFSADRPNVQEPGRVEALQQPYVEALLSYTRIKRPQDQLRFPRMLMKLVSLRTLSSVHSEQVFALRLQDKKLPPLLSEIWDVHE

[2] = biological target: Prothrombin (Bos taurus, UniProt P00735); test: thrombin protease inhibitors – biochemical, fluorescence polarization, uHTS hits, dose response (AID 602369); assay type: functional
[3] = biological target: 72 kDa type IV collagenase (Homo sapiens, UniProt P08253); test: Dose Response validation of uHTS RPN11 inhibitor hits using a MMP-2 Fluorescence assay.; assay type: functional
[4] = biological target: Voltage-gated inwardly rectifying potassium channel KCNH2 (Homo sapiens, UniProt Q12809); test: concentration-dependent hERG rescue from blockers – cell-based, thallium flux, dose response (AID 2121); assay type: ADME
[5] = Luminescence-based cell-based high throughput dose response assay to identify activators of the DAF-12 from the parasite S. stercoralis (ssDAF-12).; assay type: functional
[6] = biological target: 26S proteasome non-ATPase regulatory subunit 14 (Homo sapiens, UniProt O00487); test: inhibition of proteasome subunit RPN11 – biochemical, fluorescence polarization, uHTS hits, confirmation (AID 602368); assay type: functional
[7] = cAMP pathway inhibition in counterscreen cell line – TR-FRET cAMP detection, counter-screen for MC4R biased antagonist project, dose response (AID 602305); assay type: functional, cell-based;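 also: U2OS cells stimulated with forskolin near its EC80 as the cAMP inducer; potency is for inhibition of forskolin-stimulated cAMP signaling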
[8] = biological target: Melanocortin receptor 4 (Homo sapiens, UniProt P32245); test: inhibitors of MC4R cAMP signaling – cell-based, TR-FRET, biased antagonists, dose response (AID 602298); assay type: functional;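 also: antagonist potency against agonist-stimulated cAMP production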
[9] = microbe, parasite or virus in culture; assay type: functional; settings: Mycobacterium tuberculosis
[10] = general mammalian cell viability loss – activator set, cherry-pick, cytotoxicity control for miR-122 modulator project, dose response (AID 720690); assay type: functional, cell-based;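 also: HEK293T human cells scored for general mammalian cytotoxicity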
[11] = loss of viability in HepG2 cells – cell-based, CellTiter-Glo, cherry-picked, cytotoxicity control for Shn3 inhibitor project, dose response (AID 624134); assay type: functional
[12] = HEK-293T viability loss, compound-treated – cell-based, uHTS hits, cytotoxicity control for B/T-cell NF-kB inhibitor project, dose response (AID 489019); assay type: functional;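 also: IC50 reflects cytotoxicity as loss of cell viability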
[13] = test system: INS1; test: INS-1E survival protection against cytokine death – cell-based, luminescence, retest, dose response (AID 449756); assay type: functional; settings: Rattus norvegicus;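 also: cell death triggered by IL-1 beta plus TNF-alpha plus IFN-gamma mixture; protective hits raise ATP signal compared with cytokine alone wells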
[14] = biological target: Protein Wnt-3a (Mus musculus, UniProt P27467); test: antagonism of Wnt3a pathway luciferase reporter – Wnt-LIGHT cells, luminescence, selectivity assay for Gli-SUFU antagonist project, dose response (AID 651570); assay type: functional; settings: read-out: IC50_Mean;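 also: Wnt-LIGHT reporter cells stimulated with conditioned medium from Wnt3a-producing cells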
[15] = test system: Jurkat; test: blockers of NF-kB activation in T cells – Jurkat, luciferase reporter, luminescence, B- and T-cell, dose response (AID 489004); assay type: functional, cell-based; settings: Homo sapiens;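 also: NF-kB luciferase reporter Jurkat cells stimulated with PMA plus ionomycin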
[16] = biological target: T2, COUP transcription factor 2 (Homo sapiens, UniProt P24468); test: Luminescence-based cell-based high throughput dose response assay to identify inhibitors of COUP-TFII (NR2F2).; assay type: functional;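 also: HEK293 cells transiently cotransfected with COUP-TFII expression vector and reporter; luciferase reporter luminescence driven by COUP-TFII from the pX2-168 reporter plasmid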
T2 sequence (P24468 whole entry): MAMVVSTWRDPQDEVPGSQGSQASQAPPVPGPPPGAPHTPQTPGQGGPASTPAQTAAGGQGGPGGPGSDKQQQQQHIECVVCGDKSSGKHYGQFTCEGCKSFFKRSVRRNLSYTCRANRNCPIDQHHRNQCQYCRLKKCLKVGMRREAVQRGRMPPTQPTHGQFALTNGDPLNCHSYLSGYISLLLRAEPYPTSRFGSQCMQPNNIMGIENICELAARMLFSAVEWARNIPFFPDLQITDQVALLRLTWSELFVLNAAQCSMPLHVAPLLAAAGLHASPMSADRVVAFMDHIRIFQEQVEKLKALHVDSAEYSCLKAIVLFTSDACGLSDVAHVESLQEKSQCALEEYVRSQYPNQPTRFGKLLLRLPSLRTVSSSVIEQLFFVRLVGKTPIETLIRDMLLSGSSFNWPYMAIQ

[17] = non-specific 3'UTR reporter inhibition in Clone20-Shn3RL – cell-based, Renilla luciferase, cherry-picked, counter-screen for Shn3 inhibitor project, dose response (AID 624133); assay type: functional
[18] = general mammalian cell viability loss – inhibitor set, cherry-pick, set 2, cytotoxicity control for miR-122 modulator project, dose response (AID 720697); assay type: functional, cell-based
[19] = HIV-1 AD8 envelope cell-cell fusion blockers – cherry-pick, dose response (AID 652062); assay type: functional, cell-based;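 also: luciferase signal from cell-cell fusion driven by HIV-1 clade B AD8 Env; potency is for inhibitors of fusion seen as a drop in luminescence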
[20] = reduction of Shn3 3'UTR-driven luciferase in osteoblasts – cell-based, Clone20 osteoblasts, firefly luciferase, cherry-picked, dose response (AID 624132); assay type: functional;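 also: firefly luciferase luminescence from reporter carrying the Shn3 3'UTR in osteoblasts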
[21] = biological target: Adenosylmethionine-8-amino-7-oxononanoate aminotransferase (Mycobacterium tuberculosis, UniProt P9WQ81); test: Mycobacterium tuberculosis BioA enzyme inhibitor Measured in Biochemical System Using Plate Reader - 2163-02_Inhibitor_Dose_CherryPick_Activity.; assay type: functional, Mycobacterium tuberculosis UT205
[22] = biological target: T3, Insulin-degrading enzyme (Homo sapiens, UniProt P14735); test: cellular IDE activation of Abeta substrate cleavage – fluorescence polarization, HEK cells, dose response (AID 588439); assay type: functional, cell-based
T3 sequence (P14735 whole entry): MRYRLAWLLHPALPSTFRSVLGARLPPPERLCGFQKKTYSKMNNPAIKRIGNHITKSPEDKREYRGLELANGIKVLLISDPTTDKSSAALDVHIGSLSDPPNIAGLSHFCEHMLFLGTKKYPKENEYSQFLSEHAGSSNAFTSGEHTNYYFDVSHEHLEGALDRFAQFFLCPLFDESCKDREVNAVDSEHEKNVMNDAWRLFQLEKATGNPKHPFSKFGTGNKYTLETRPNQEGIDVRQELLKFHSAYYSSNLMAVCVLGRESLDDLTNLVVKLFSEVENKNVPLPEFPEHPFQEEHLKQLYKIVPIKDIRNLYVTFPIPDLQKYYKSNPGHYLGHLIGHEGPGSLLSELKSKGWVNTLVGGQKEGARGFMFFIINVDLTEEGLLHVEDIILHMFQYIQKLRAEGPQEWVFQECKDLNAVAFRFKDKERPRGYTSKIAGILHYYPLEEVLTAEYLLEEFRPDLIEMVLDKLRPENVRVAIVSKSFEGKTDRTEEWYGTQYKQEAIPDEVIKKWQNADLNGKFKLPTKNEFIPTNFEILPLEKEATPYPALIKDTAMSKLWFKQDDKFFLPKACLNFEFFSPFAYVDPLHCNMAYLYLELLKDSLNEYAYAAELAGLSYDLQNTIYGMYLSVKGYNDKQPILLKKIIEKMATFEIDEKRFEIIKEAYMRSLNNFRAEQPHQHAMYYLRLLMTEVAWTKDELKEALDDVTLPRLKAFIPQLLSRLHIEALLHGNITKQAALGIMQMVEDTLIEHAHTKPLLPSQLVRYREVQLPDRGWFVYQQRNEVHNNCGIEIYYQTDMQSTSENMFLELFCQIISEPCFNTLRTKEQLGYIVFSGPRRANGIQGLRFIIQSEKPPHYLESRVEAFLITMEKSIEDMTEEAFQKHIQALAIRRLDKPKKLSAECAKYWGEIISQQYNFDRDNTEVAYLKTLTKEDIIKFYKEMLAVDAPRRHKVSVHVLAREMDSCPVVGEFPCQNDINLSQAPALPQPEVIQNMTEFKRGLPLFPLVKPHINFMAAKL

[23] = biological target: T4, Coagulation factor XII (Homo sapiens, UniProt P00748); assay type: functional;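 also: activated factor XIIa alpha cleaving a fluorogenic AMC peptide substrate; inhibitor potency from loss of enzyme activity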
T4 sequence (P00748 whole entry): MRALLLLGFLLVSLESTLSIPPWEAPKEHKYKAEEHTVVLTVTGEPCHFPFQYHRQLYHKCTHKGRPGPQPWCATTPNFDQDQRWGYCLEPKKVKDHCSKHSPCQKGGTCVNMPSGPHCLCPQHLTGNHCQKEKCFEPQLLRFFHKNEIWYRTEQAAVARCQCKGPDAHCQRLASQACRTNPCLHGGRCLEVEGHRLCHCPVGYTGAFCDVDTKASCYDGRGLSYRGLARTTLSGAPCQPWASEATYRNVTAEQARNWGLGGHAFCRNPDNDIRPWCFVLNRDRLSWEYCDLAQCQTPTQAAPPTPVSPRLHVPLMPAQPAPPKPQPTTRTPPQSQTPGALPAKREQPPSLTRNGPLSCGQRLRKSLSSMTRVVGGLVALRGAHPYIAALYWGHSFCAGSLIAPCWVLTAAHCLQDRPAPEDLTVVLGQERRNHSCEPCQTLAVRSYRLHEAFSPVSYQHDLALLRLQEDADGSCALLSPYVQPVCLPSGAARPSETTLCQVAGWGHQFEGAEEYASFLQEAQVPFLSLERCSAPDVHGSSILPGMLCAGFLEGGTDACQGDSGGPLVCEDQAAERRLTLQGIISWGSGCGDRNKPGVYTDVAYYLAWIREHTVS

[24] = test system: HEK293; test: optical interference in Abeta FP readout, dose response, artefact control for IDE activator project, biochemical, fluorescence polarization (AID 588442); assay type: functional, cell-based; settings: Homo sapiens
[25] = test system: HEK293; test: membrane integrity loss in HEK cells – cell-based, fluorescence, cytotoxicity control for IDE activator project, dose response (AID 588440); assay type: functional; settings: Homo sapiens;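 also: cytotoxicity by LDH release measuring loss of membrane integrity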
[26] = biological target: T3, Insulin-degrading enzyme; test: recombinant IDE activation, cell-free – biochemical, fluorescence polarization, counter-screen for IDE activator project, dose response (AID 588681)
[27] = blockers of CAL PDZ–TMR peptide complex – biochemical, fluorescence polarization, untagged CAL PDZ, cherry-pick, set 2, dose response (AID 602254); assay type: functional
[28] = biological target: Interleukin-8 (Homo sapiens, UniProt P10145); test: Dose Response confirmation of uHTS small molecule hits for cystic fibrosis induced NFkb Inhibitors in a PAF-induced IL8 counterscreen.; assay type: functional; settings: read-out: IC50_Mean
[29] = viability of uninfected HEp-2 cells – cell-based, HTS, cytotoxicity control for RSV inhibitor project, dose response (AID 2410); assay type: functional; settings: human respiratory syncytial virus

Melanocortin receptor 4, sequence (P32245 whole entry): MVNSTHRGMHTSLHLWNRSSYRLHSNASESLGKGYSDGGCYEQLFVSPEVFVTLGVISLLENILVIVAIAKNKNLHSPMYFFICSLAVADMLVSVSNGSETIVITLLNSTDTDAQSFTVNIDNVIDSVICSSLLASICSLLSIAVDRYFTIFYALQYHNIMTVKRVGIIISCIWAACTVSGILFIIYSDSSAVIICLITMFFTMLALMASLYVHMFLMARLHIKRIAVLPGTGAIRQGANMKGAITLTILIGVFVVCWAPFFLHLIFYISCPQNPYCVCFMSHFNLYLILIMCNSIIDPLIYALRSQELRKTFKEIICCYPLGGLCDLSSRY
Interleukin-8, sequence (P10145 whole entry): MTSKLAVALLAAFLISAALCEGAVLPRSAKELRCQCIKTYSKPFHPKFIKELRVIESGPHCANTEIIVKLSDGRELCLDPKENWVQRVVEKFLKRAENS
72 kDa type IV collagenase, sequence (P08253 whole entry): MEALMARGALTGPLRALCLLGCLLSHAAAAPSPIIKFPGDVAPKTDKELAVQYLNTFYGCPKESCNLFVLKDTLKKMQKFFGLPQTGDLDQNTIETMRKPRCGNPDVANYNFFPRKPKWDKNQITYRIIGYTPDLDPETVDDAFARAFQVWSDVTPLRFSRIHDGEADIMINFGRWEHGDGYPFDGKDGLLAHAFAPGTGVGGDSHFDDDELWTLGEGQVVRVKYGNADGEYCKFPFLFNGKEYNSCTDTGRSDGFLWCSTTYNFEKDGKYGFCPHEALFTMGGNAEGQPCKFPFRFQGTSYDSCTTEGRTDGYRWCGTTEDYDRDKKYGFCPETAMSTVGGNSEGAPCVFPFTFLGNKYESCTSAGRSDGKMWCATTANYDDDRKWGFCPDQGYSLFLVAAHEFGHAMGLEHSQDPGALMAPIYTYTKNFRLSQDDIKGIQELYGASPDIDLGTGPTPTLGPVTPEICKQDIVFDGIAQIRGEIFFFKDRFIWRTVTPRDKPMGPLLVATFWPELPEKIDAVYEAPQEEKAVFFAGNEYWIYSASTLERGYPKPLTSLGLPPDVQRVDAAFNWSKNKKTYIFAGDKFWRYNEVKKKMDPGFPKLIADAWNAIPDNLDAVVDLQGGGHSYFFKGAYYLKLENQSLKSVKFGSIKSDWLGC
Voltage-gated inwardly rectifying potassium channel KCNH2, sequence (Q12809 whole entry): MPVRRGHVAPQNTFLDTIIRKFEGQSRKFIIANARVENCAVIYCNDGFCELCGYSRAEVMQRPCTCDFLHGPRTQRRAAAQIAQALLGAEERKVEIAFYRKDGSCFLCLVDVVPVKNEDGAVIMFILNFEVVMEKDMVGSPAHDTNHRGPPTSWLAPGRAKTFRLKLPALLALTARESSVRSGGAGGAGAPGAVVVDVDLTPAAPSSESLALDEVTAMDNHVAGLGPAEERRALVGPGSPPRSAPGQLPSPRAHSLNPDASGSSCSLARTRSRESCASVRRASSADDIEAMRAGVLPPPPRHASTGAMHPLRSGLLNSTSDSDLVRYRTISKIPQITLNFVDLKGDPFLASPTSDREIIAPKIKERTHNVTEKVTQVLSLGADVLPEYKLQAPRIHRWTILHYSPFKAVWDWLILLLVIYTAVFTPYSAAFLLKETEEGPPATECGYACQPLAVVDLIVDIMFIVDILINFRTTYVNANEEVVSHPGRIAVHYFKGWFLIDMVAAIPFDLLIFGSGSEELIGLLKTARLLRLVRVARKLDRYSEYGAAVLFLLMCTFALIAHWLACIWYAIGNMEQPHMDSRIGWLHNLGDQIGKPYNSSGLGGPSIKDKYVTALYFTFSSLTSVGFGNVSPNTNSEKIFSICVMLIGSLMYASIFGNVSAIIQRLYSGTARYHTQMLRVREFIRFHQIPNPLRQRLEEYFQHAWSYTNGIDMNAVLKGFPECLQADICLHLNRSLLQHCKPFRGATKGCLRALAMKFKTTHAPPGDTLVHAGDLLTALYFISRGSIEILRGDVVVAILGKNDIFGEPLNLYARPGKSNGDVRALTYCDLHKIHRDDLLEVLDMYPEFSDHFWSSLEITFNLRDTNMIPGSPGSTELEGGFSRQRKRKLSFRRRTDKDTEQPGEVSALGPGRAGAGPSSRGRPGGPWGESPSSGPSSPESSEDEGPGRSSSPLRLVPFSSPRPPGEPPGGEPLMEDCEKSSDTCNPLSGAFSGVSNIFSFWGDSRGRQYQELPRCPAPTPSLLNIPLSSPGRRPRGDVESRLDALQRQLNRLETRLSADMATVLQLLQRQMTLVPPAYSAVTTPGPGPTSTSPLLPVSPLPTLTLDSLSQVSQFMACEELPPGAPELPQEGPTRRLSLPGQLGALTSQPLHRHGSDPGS
Protein Wnt-3a, sequence (P27467 whole entry): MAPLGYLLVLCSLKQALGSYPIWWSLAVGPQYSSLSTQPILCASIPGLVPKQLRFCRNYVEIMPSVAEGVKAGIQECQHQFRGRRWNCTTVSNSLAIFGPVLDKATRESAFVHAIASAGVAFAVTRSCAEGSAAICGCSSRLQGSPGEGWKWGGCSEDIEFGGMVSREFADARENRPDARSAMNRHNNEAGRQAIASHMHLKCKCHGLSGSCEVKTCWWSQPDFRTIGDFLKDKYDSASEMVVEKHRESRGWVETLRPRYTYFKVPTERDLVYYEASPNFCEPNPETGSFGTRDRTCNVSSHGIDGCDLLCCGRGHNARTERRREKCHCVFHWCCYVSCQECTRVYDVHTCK
26S proteasome non-ATPase regulatory subunit 14, sequence (O00487 whole entry): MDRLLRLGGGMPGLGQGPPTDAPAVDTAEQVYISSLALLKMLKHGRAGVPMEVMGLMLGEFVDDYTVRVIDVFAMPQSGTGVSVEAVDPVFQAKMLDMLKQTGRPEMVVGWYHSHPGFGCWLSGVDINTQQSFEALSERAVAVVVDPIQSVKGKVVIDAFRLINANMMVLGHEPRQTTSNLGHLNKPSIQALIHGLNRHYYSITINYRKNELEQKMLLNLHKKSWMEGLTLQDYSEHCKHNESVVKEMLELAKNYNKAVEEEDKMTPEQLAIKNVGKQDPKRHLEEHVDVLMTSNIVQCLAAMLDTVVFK
Adenosylmethionine-8-amino-7-oxononanoate aminotransferase, sequence (P9WQ81 whole entry): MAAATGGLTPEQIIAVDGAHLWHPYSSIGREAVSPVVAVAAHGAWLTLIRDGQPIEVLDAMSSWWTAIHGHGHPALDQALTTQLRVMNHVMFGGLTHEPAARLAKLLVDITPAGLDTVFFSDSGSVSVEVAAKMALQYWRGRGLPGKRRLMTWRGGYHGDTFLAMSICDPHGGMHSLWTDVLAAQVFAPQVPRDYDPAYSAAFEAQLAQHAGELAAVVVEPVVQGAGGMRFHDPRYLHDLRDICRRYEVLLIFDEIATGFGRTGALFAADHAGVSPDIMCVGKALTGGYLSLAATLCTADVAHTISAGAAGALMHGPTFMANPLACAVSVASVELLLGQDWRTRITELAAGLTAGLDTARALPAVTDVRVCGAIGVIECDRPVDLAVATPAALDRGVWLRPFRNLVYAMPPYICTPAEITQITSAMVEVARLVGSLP

Structure (SMILES): O=C(CSc1nc2cc(Cl)ccc2s1)c1cc2ccccc2o1
- EC50 [1]: > 67.5 µM (inactive)
- IC50 [2]: 28.5 µM (active)
- IC50 [3]: 18.8 µM (active)
- EC50 [4]: 0.35 µM (active)
- IC50 [5]: > 67.5 µM (inactive)
- IC50 [6]: 24.5 µM (active)

Structure (SMILES): COc1cc2c(cc1NC(=O)CN1C(=O)NC3(CCc4ccccc43)C1=O)oc1ccccc12 (configuration not stated)
- IC50 [7]: > 64.6 µM (inactive)
- IC50 [8]: > 64.6 µM (inactive)
- CC50 [9]: 23.6 µM (active)

Structure (SMILES): Cc1ccc(OCCN2CCN(c3ncnc4sc(C)c(C)c34)CC2)cc1
- AC50 [10]: 33.6 µM (active)
- AC50 [11]: 1.5 µM (active)
- IC50 [12]: > 80 µM (inactive)
- AC50 [13]: 2.36 µM (active)
- IC50 [14]: 0.282 µM (active)
- IC50 [15]: > 80 µM (inactive)
- IC50 [16]: 4.98 µM (active)
- AC50 [17]: 2.05 µM (active)
- CC50 [9]: > 40 µM (active)
- AC50 [18]: 13.6 µM (active)
- AC50 [19]: 1.78 µM (active)
- AC50 [20]: 0.754 µM (active)

Structure (SMILES): Cc1cccc(C2c3[nH]c4ccccc4c3CCN2C(=O)CN2CCOC2=O)n1 (configuration not stated)
- AC50 [21]: 7.05 µM (active)

Structure (SMILES): COc1ccc(C(=O)N/N=C/c2cc3ccccc3nc2O)cc1
- EC50 [22]: > 54.7 µM (inactive)
- IC50 [23]: > 50 µM (inactive)
- EC50 [24]: > 55.9 µM (inactive)
- IC50 [25]: > 89.1 µM (inactive)
- EC50 [26]: > 54.7 µM (inactive)

Structure (SMILES): CC(C)(C)c1ccc(/C=N/N2CCN(c3ccccn3)CC2)cc1
- AC50 [27]: 91.5 µM (active)

Structure (SMILES): CC(=N)C1=C(O)C2(C)C(=CC1=O)Oc1c(C(C)=O)c(O)c(C)c(O)c12 (configuration not stated)
- IC50 [7]: > 64.6 µM (inactive)
- IC50 [8]: > 64.6 µM (inactive)

Structure (SMILES): CC(C)C[C@H](CO)Nc1nc(Nc2cccc(Cl)c2)c2ncn(C(C)C)c2n1
- IC50 [28]: 5.97 µM (active)
- CC50 [29]: 44.4 µM (active)
